Assay results reported in ChEMBL document CHEMBL3124770, “Rugulactone derivatives act as inhibitors of NF-κB activation and modulates the transcription of NF-κB dependent genes in MDA-MB-231cells” (Bioorg Med Chem Lett, 2014).
Active and inactive are the calls of the source. The rule behind the calls is not given here.

Experiments:
MCF7 [1] = assay: Inhibition of NFkappaB activity in estrogen receptor-positive human MCF7 cells at 2 uM after 24 hrs by SEAP reporter assay; format: cell-based
MDA-MB-231 [2] = assay: Inhibition of NFkappaB activity in estrogen receptor-negative human MDA-MB-231 cells at 2 uM after 24 hrs by SEAP reporter assay; format: cell-based
MCF7 [3] = assay: Cytotoxicity against estrogen receptor-positive human MCF7 cells assessed as cell viability after 72 hrs by MTT assay; format: functional, cell-based; settings: MCF7, 72 h
MDA-MB-231 [4] = assay: Cytotoxicity against estrogen receptor-negative human MDA-MB-231 cells assessed as cell viability after 72 hrs by MTT assay; format: functional, cell-based; settings: MDA-MB-231, 72 h
MDA-MB-231 [5] = assay: Reduction in HDAC-8 nuclear expression in estrogen receptor-negative human MDA-MB-231 cells at 2 uM after 24 hrs by Western blotting analysis; format: functional, cell-based
MDA-MB-231 [6] = assay: Inhibition of NFkappaB activity in estrogen receptor-negative human MDA-MB-231 cells assessed as retention of NFKappaB/Rel A in cytoplasm at 2 uM after 24 hrs by DAPI/PI staining-based confocal microscopy; format: cell-based
MDA-MB-231 [7] = assay: Reduction in HDAC-3 nuclear expression in estrogen receptor-negative human MDA-MB-231 cells at 2 uM after 24 hrs by Western blotting analysis; format: functional, cell-based
MDA-MB-231 [8] = assay: Inhibition of NFkappaB activity in estrogen receptor-negative human MDA-MB-231 cells assessed as reduction of Bcl-xL expression at 2 uM after 24 hrs by Western blotting analysis; format: cell-based
MDA-MB-231 [9] = assay: Inhibition of NFkappaB activity in estrogen receptor-negative human MDA-MB-231 cells assessed as reduction of cyclin D1 expression at 2 uM after 24 hrs by Western blotting analysis; format: cell-based
MDA-MB-231 [10] = assay: Inhibition of NFkappaB activity in estrogen receptor-negative human MDA-MB-231 cells assessed as reduction of p65 expression at 2 uM after 24 hrs by Western blotting analysis; format: cell-based
MDA-MB-231 [11] = assay: Effect on p21 gene expression in estrogen receptor-negative human MDA-MB-231 cells at 2 uM after 24 hrs by luciferase reporter gene assay; format: functional, cell-based
MDA-MB-231 [12] = assay: Cell cycle arrest in estrogen receptor-negative human MDA-MB-231 cells assessed as accumulation at G2/M phase at 2 uM after 24 hrs by Propidium iodide staining-based flow cytometric analysis (reference value: 26.33 +/- 3.05%); format: functional
MDA-MB-231 [13] = assay: Cell cycle arrest in estrogen receptor-negative human MDA-MB-231 cells assessed as accumulation at S phase at 2 uM after 24 hrs by Propidium iodide staining-based flow cytometric analysis (reference value: 19 +/- 1%); format: functional
MDA-MB-231 [14] = assay: Cell cycle arrest in estrogen receptor-negative human MDA-MB-231 cells assessed as accumulation at G1 phase at 2 uM after 24 hrs by Propidium iodide staining-based flow cytometric analysis (reference value: 54.66 +/- 2.51%); format: functional
MDA-MB-231 [15] = assay: Induction of apoptosis in estrogen receptor-negative human MDA-MB-231 cells assessed as reduced procaspase-3 level at 2 uM after 24 hrs by Western blotting analysis; format: functional, cell-based
MDA-MB-231 [16] = assay: Induction of apoptosis in estrogen receptor-negative human MDA-MB-231 cells assessed as increase in Rb cleavage at 2 uM after 24 hrs by Western blotting analysis; format: functional, cell-based
MDA-MB-231 [17] = assay: Induction of apoptosis in estrogen receptor-negative human MDA-MB-231 cells assessed as increase in PARP cleavage at 2 uM after 24 hrs by Western blotting analysis; format: functional, cell-based
MDA-MB-231 [18] = assay: Cell cycle arrest in estrogen receptor-negative human MDA-MB-231 cells assessed as decrease in CDK2 expression at 2 uM after 24 hrs by Western blotting analysis; format: functional, cell-based
MDA-MB-231 [19] = assay: Cell cycle arrest in estrogen receptor-negative human MDA-MB-231 cells assessed as decrease in Cyclin E expression at 2 uM after 24 hrs by Western blotting analysis; format: functional, cell-based

Row | SMILES | inhibition (MCF7 [1]) | inhibition (MDA-MB-231 [2]) | IC50 (MCF7 [3]) | IC50 (MDA-MB-231 [4]) | also measured
1 | O=C(/C=C/C[C@H]1CC=CC(=O)O1)CCc1cccc(O)c1 | Active | Active | 4.32 µM | 6.68 µM | –
2 | O=C(/C=C/C[C@@H]1CC=CC(=O)O1)CCc1ccco1 | Active | Active | 4.37 µM | 3.37 µM | –
3 | CCCCCCCCCCCCCCCC(=O)/C=C/C[C@H]1CC=CC(=O)O1 | Active | Active | 3.79 µM | 3.98 µM | –
4 | O=C(/C=C/C[C@H]1CC=CC(=O)O1)CCc1ccco1 | Active | Active | 3.52 µM | 3.34 µM | –
5 | O=C(/C=C/C[C@@H]1CC=CC(=O)O1)CCc1ccc2c(c1)OCO2 | Active | Active | 6.56 µM | 7.93 µM | –
6 | O=C(/C=C/C[C@H]1CC=CC(=O)O1)CCc1c[nH]c2ccccc12 | Active | Active | 3.91 µM | 3.98 µM | –
7 | CCCCCCCCCCCCCCCCC/C=C/C(=O)/C=C/C[C@H]1CC=CC(=O)O1 | Active | Active | 3.04 µM | 2.87 µM | Activity (MDA-MB-231 [5]): Active; NF-kappaB activity inhibition (MDA-MB-231 [6]): Active; Activity (MDA-MB-231 [7]): Active; inhibition (MDA-MB-231 [8]): Active; inhibition (MDA-MB-231 [9]): Active; inhibition (MDA-MB-231 [10]): Active; Activity (MDA-MB-231 [11]): inactive; Activity (MDA-MB-231 [12]): 19.3%; Activity (MDA-MB-231 [13]): 8%; Activity (MDA-MB-231 [14]): 72.6%
8 | CCCCCCCC/C=C\CCCCCCCC(=O)/C=C/C[C@@H]1CC=CC(=O)O1 | Active | Active | 5.12 µM | 5.54 µM | –
9 | O=C(/C=C/C[C@@H]1CC=CC(=O)O1)CCc1ccccc1 [R-RUGULACTONE] | Active | Active | 3.59 µM | 3.44 µM | Activity (MDA-MB-231 [5]): Active; NF-kappaB activity inhibition (MDA-MB-231 [6]): Active; Activity (MDA-MB-231 [7]): Active; Activity (MDA-MB-231 [11]): inactive; Activity (MDA-MB-231 [15]): Active; Activity (MDA-MB-231 [16]): Active; Activity (MDA-MB-231 [17]): Active; Activity (MDA-MB-231 [18]): Active; Activity (MDA-MB-231 [19]): Active; Activity (MDA-MB-231 [12]): 21.66%; Activity (MDA-MB-231 [13]): 8.33%; Activity (MDA-MB-231 [14]): 70%
10 | CCCCCCCCCCCCCCCCCC(=O)/C=C/C[C@H]1CC=CC(=O)O1 | Active | Active | 4.32 µM | 3.93 µM | –
11 | O=C(/C=C/C[C@@H]1CC=CC(=O)O1)CCc1cccc(Oc2ccccc2)c1 | Active | Active | 4.56 µM | 4.91 µM | –
12 | CCCCCCCCCCCC(=O)/C=C/C[C@H]1CC=CC(=O)O1 | Active | Active | 4 µM | 3.16 µM | –
13 | CCCCCCCCCCCCCCCCCCCC(=O)/C=C/C[C@@H]1CC=CC(=O)O1 | Active | Active | 5.57 µM | 6.22 µM | –
14 | O=C(/C=C/C[C@@H]1CC=CC(=O)O1)CCc1ccc2ccccc2c1 | Active | Active | 4.72 µM | 4.74 µM | –
15 | CCCCCCCCCCCCCCCCCCCC(=O)/C=C/C[C@H]1CC=CC(=O)O1 | Active | Active | 3.12 µM | 3.58 µM | –
16 | O=C(/C=C/C[C@H]1CC=CC(=O)O1)CCc1cccc(Oc2ccccc2)c1 | Active | Active | 3.36 µM | 3.2 µM | –
17 | O=C(/C=C/C[C@@H]1CC=CC(=O)O1)CCc1cccc(O)c1 | Active | Active | 5.12 µM | 6.18 µM | –
18 | CCCCCCCCCCCC(=O)/C=C/C[C@@H]1CC=CC(=O)O1 | Active | Active | 4.56 µM | 5.42 µM | –
19 | CC(=O)/C=C/C[C@@H]1CC=CC(=O)O1 | Active | Active | 3.36 µM | 3.07 µM | Activity (MDA-MB-231 [5]): Active; NF-kappaB activity inhibition (MDA-MB-231 [6]): Active; Activity (MDA-MB-231 [7]): Active; Activity (MDA-MB-231 [11]): inactive; Activity (MDA-MB-231 [15]): Active; Activity (MDA-MB-231 [16]): Active; Activity (MDA-MB-231 [17]): Active; Activity (MDA-MB-231 [18]): Active; Activity (MDA-MB-231 [19]): Active; Activity (MDA-MB-231 [12]): 26%; Activity (MDA-MB-231 [13]): 6%; Activity (MDA-MB-231 [14]): 68%
20 | CCCCCCCCCCCCCCCC(=O)/C=C/C[C@@H]1CC=CC(=O)O1 | Active | Active | 3.96 µM | 4.11 µM | –
21 | O=C(/C=C/C[C@H]1CC=CC(=O)O1)CCc1ccc2ccccc2c1 | Active | Active | 4.48 µM | 3.64 µM | –
22 | O=C(/C=C/C[C@H]1CC=CC(=O)O1)CCc1ccc2c(c1)OCO2 | Active | Active | 3.31 µM | 3.09 µM | –
23 | CCCCCCCCCCCCCCCCC/C=C/C(=O)/C=C/C[C@@H]1CC=CC(=O)O1 | Active | Active | 3.76 µM | 4.49 µM | –
24 | O=C(/C=C/C[C@@H]1CC=CC(=O)O1)CCc1c[nH]c2ccccc12 | Active | Active | 5.73 µM | 7.08 µM | –
25 | CCCCCCCC/C=C\CCCCCCCC(=O)/C=C/C[C@H]1CC=CC(=O)O1 | Active | Active | 2.7 µM | 2.96 µM | Activity (MDA-MB-231 [5]): Active; NF-kappaB activity inhibition (MDA-MB-231 [6]): Active; Activity (MDA-MB-231 [7]): Active; inhibition (MDA-MB-231 [8]): Active; inhibition (MDA-MB-231 [9]): Active; inhibition (MDA-MB-231 [10]): Active; Activity (MDA-MB-231 [11]): inactive; Activity (MDA-MB-231 [12]): 21.3%; Activity (MDA-MB-231 [13]): 8%; Activity (MDA-MB-231 [14]): 70.6%
